Results reported in patent US8436043B2 (Takeda Pharmaceutical Company Limited, priority 2008, dated 2013).

biological target: T1, human glucagon receptor (Homo sapiens, UniProt P47871); experiment: Glucagon binding inhibitory activity ([125I]-glucagon binding to glucagon receptor membrane protein); conditions: human glucagon receptor membrane protein, [125I]-glucagon, 90 min room temperature
T1 construct: made in house; host or cells: FreeStyle CHO cells, transient transfection with pMSRαneo/hGCGR; membrane fraction (35,000 rpm pellet)
Procedure, shortened: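 Receptor source was a membrane fraction of transiently transfected CHO cells bearing human receptor; 90 min room-temperature binding, filtration harvest, scintillation counting.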

T1 sequence (P47871 26-477): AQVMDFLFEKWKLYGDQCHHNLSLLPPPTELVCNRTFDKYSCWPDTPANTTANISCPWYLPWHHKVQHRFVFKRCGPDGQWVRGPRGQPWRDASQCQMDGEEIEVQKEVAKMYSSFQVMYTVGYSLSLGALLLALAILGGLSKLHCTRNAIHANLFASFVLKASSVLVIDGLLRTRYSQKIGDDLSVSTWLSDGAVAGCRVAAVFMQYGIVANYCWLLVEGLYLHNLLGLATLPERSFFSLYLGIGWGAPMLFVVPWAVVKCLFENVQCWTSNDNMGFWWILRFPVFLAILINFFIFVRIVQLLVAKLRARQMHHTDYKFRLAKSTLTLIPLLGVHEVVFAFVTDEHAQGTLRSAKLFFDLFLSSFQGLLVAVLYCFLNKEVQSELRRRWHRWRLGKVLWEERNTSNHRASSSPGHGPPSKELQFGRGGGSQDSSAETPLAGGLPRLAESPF

| IC50 [µM] | SMILES |
| --- | --- |
| 0.23 | Cc1c(C(Nc2ccc(C(=O)NCCC(=O)O)cc2)C2CCCCC2)oc2ccccc12 (stereo not shown) [Example A17, 3-{[(4-{[cyclohexyl(3-methyl-1-benzofuran-2-yl)methyl]amino}phenyl)carbonyl]amino}propanoic acid] |

same assay, conditions: test compound 10 μM; 0.4% DMSO = 0%, non-labeled glucagon 1 μM = 100%; read-out: inhibitory rate (%) at 10 μM

| inhibition at 10 µM [%] | SMILES |
| --- | --- |
| 68 | CCOc1cccc(-n2cc(C(CC(C)C)Nc3ccc(C(=O)N(C)CCC(=O)O)cc3)c(CC)n2)c1 (stereo not shown) [Example 85, 3-[{[4-({1-[1-(3-ethoxyphenyl)-3-ethyl-1H-pyrazol-4-yl]-3-methylbutyl}amino)phenyl]carbonyl}(methyl)amino]propanoic acid] |
| 62 | CCc1c(C(CC(C)C)Nc2ccc(C(=O)N(C)CCC(=O)O)cc2)oc2ccccc12 (stereo not shown) [Example A31, 3-{[(4-{[1-(3-ethyl-1-benzofuran-2-yl)-3-methylbutyl]amino}phenyl)carbonyl](methyl)amino}propanoic acid] |
| 75 | Cc1c(C(C)Nc2ccc(C(=O)N(C)CCC(=O)O)cc2)oc2ccc(OCc3ccccc3)cc12 (stereo not shown) [Example A166, 3-[{[4-({1-[5-(benzyloxy)-3-methyl-1-benzofuran-2-yl]ethyl}amino)phenyl]carbonyl}(methyl)amino]propanoic acid] |
| 72 | Cc1c(C(Nc2ccc(C(=O)NCCC(=O)O)cc2)C2CCCCC2)oc2ccccc12 (stereo not shown) [Example A17, 3-{[(4-{[cyclohexyl(3-methyl-1-benzofuran-2-yl)methyl]amino}phenyl)carbonyl]amino}propanoic acid] |
| 77 | CCc1nn(-c2ccc(C(F)(F)F)cn2)cc1C(Nc1ccc(C(=O)N(C)CCC(=O)O)cc1)C1CCCCC1 (stereo not shown) [Example 4, 3-[({4-[(cyclohexyl{3-ethyl-1-[5-(trifluoromethyl)pyridin-2-yl]-1H-pyrazol-4-yl}methyl)amino]phenyl}carbonyl)(methyl)amino]propanoic acid] |
| 70 | Cc1c(C(Nc2ccc(C(=O)N(C)CCC(=O)O)cc2)C(C)C)oc2ccc(Oc3ccc(C(F)(F)F)cn3)cc12 (stereo not shown) [Example A206, 3-{methyl[(4-{[2-methyl-1-(3-methyl-5-{[5-(trifluoromethyl)pyridin-2-yl]oxy}-1-benzofuran-2-yl)propyl]amino}phenyl)carbonyl]amino}propanoic acid] |
| 61 | CCn1nc(-c2ccc(OC(F)(F)F)cc2)cc1C(CC(C)C)Nc1ccc(C(=O)N(C)CCC(=O)O)cc1 (stereo not shown) [Example 59, 3-[({4-[(1-{1-ethyl-3-[4-(trifluoromethoxy)phenyl]-1H-pyrazol-5-yl}-3-methylbutyl)amino]phenyl}carbonyl)(methyl)amino]propanoic acid] |
| 84 | Cc1c(C(Nc2ccc(C(=O)N(C)CCC(=O)O)cc2)C2CCCCC2)oc2ccc(OCC(C)(C)O)cc12 (stereo not shown) [Example A195, 3-[{[4-({cyclohexyl[5-(2-hydroxy-2-methylpropoxy)-3-methyl-1-benzofuran-2-yl]methyl}amino)phenyl]carbonyl}(methyl)amino]propanoic acid] |
| 71 | COCCCCC(Nc1ccc(C(=O)NCCC(=O)O)cc1)c1oc2ccc(OC)cc2c1C (stereo not shown) [Example A123, 3-{[(4-{[5-methoxy-1-(5-methoxy-3-methyl-1-benzofuran-2-yl)pentyl]amino}phenyl)carbonyl]amino}propanoic acid] |
| 62 | COc1cccc2cc(C(Nc3ccc(C(=O)N(C)CCC(=O)O)cc3)C3CCCCC3)oc12 (stereo not shown) [Example A21, 3-{[(4-{[cyclohexyl(7-methoxy-1-benzofuran-2-yl)methyl]amino}phenyl)carbonyl](methyl)amino}propanoic acid] |
| 73 | Cc1nn(-c2ccc(C(F)(F)F)cn2)cc1C(Nc1ccc(C(=O)NCCC(=O)O)cc1)C1CCCCC1 (stereo not shown) [Example 1, 3-[({4-[(Cyclohexyl{3-methyl-1-[5-(trifluormethyl)pyridin-2-yl]-1H-pyrazol-4-yl}methyl)amino]phenyl}carbonyl)amino]propanoic acid] |
| 53 | CCNC(=O)Nc1ccc2oc(C(Nc3ccc(C(=O)N(C)CCC(=O)O)cc3)C3CCCCC3)c(C)c2c1 (stereo not shown) [Example A115, 3-[({4-[(cyclohexyl{5-[(ethylcarbamoyl)amino]-3-methyl-1-benzofuran-2-yl}methyl)amino]phenyl}carbonyl)(methyl)amino]propanoic acid] |
| 82 | Cc1c(C(Nc2ccc(C(=O)N(C)CCC(=O)O)cc2)C(C)C)oc2ccc(OCc3ccccc3)cc12 (stereo not shown) [Example A85, 3-[{[4-({1-[5-(benzyloxy)-3-methyl-1-benzofuran-2-yl]-2-methylpropyl}amino)phenyl]carbonyl}(methyl)amino]propanoic acid] |
| 74 | O=C(O)CCNC(=O)c1ccc(NC(c2cc3cc(C(F)(F)F)ccc3s2)C2CCCCC2)cc1 (stereo not shown) [Example A11, 3-({[4-({cyclohexyl[5-(trifluoromethyl)-1-benzothiophen-2-yl]methyl}amino)phenyl]carbonyl}amino)propanoic acid] |
| 54 | CCC(C)(C)n1cc(C(Nc2ccc(C(=O)NCCC(=O)O)cc2)C2CCCCC2)c(C)n1 (stereo not shown) [Example 43, 3-({[4-({cyclohexyl[1-(1,1-dimethylpropyl)-3-methyl-1H-pyrazol-4-yl]methyl}amino)phenyl]carbonyl}amino)propanoic acid] |
| 73 | COCCOc1ccc2oc(C(Nc3ccc(C(=O)N(C)CCC(=O)O)cc3)C3CCCCC3)c(C)c2c1 (stereo not shown) [Example A79, 3-[{[4-({cyclohexyl[5-(2-methoxyethoxy)-3-methyl-1-benzofuran-2-yl]methyl}amino)phenyl]carbonyl}(methyl)amino]propanoic acid] |
| 69 | CCn1nc(-c2ccc(OC(F)(F)F)cc2)cc1C(Nc1ccc(C(=O)N(C)CCC(=O)O)cc1)C1CCCCC1 (stereo not shown) [Example 58, 3-[({4-[(cyclohexyl{1-ethyl-3-[4-(trifluoromethoxy)phenyl]-1H-pyrazol-5-yl}methyl)amino]phenyl}carbonyl)(methyl)amino]propanoic acid] |
| 60 | CCc1nn(-c2ccc(OC)cc2)cc1C(Nc1ccc(C(=O)N(C)CCC(=O)O)cc1)C1CCCCC1 (stereo not shown) [Example 51, 3-[{[4-({cyclohexyl[3-ethyl-1-(4-methoxyphenyl)-1H-pyrazol-4-yl]methyl}amino)phenyl]carbonyl}(methyl)amino]propanoic acid] |
| 78 | Cc1c(C(CC(C)C)Nc2ccc(C(=O)NCCC(=O)O)cc2)oc2ccc(Cl)cc12 (stereo not shown) [Example A100, 3-{[(4-{[1-(5-chloro-3-methyl-1-benzofuran-2-yl)-3-methylbutyl]amino}phenyl)carbonyl]amino}propanoic acid] |
| 71 | Cc1c(C(Nc2ccc(C(=O)NCCC(=O)O)cn2)C2CCCCC2)oc2ccc(F)cc12 (stereo not shown) [Example A51, 3-{[(6-{[cyclohexyl(5-fluoro-3-methyl-1-benzofuran-2-yl)methyl]amino}pyridin-3-yl)carbonyl]amino}propanoic acid] |
| 89 | Cc1c(C(Nc2ccc(C(=O)N(C)CCC(=O)O)cc2)C2CCCCC2)oc2ccc(Oc3ccccn3)cc12 (stereo not shown) [Example A200, 3-[{[4-({cyclohexyl[3-methyl-5-(pyridin-2-yloxy)-1-benzofuran-2-yl]methyl}amino)phenyl]carbonyl}(methyl)amino]propanoic acid] |
| 72 | CN(CCC(=O)O)C(=O)c1ccc(NC(c2nn(-c3ccccc3)c3ccccc23)C2CCCCC2)cc1 (stereo not shown) [Example A15, 3-{[(4-{[cyclohexyl(1-phenyl-1H-indazol-3-yl)methyl]amino}phenyl)carbonyl](methyl)amino}propanoic acid] |
| 79 | COCc1nn(-c2ccc(OC(F)(F)F)cc2)cc1C(Nc1ccc(C(=O)N(C)CCC(=O)O)cc1)C1CCCCC1 (stereo not shown) [Example 34, 3-[({4-[(cyclohexyl{3-(methoxymethyl)-1-[4-(trifluoromethoxy)phenyl]-1H-pyrazol-4-yl}methyl)amino]phenyl}carbonyl)(methyl)amino]propanoic acid] |
| 75 | Cc1c(C(Nc2ccc(C(=O)NCCC(=O)O)cc2)C2CCCCC2)oc2ccc(Cl)cc12 (stereo not shown) [Example A88, 3-{[(4-{[(5-chloro-3-methyl-1-benzofuran-2-yl)(cyclohexyl)methyl]amino}phenyl)carbonyl]amino}propanoic acid] |
| 58 | COc1ccc2nc(C(Nc3ccc(C(=O)NCCC(=O)O)cc3)C3CCCCC3)n(C)c2c1 (stereo not shown) [Example A116, 3-{[(4-{[cyclohexyl(6-methoxy-1-methyl-1H-benzimidazol-2-yl)methyl]amino}phenyl)carbonyl]amino}propanoic acid] |
| 68 | Cc1c(C(Nc2ccc(C(=O)N(C)CCC(=O)O)cc2)C2CCCCC2)oc2cccnc12 (stereo not shown) [Example A113, 3-{[(4-{[cyclohexyl(3-methylfuro[3,2-b]pyridin-2-yl)methyl]amino}phenyl)carbonyl](methyl)amino}propanoic acid] |
| 70 | COc1ccc2oc(C(CC(C)C)Nc3ccc(C(=O)N(C)CCC(=O)O)cc3)c(C)c2c1 (stereo not shown) [Example A93, 3-{[(4-{[1-(5-methoxy-3-methyl-1-benzofuran-2-yl)-3-methylbutyl]amino}phenyl)carbonyl](methyl)amino}propanoic acid] |
| 77 | COCc1nn(-c2ccc(C(F)(F)F)cn2)cc1C(Nc1ccc(C(=O)NCCC(=O)O)cc1)C1CCCCC1 (stereo not shown) [Example 29, 3-[({4-[(cyclohexyl{3-(methoxymethyl)-1-[5-(trifluoromethyl)pyridin-2-yl]-1H-pyrazol-4-yl}methyl)amino]phenyl}carbonyl)amino]propanoic acid] |
| 61 | Cc1cc(F)ccc1-n1cc(C(Nc2ccc(C(=O)N(C)CCC(=O)O)cc2)C2CCCCC2)c(C)n1 (stereo not shown) [Example 22, 3-[{[4-({[1-(4-fluoro-2-methylphenyl)-3-methyl-1H-pyrazol-4-yl](cyclohexyl)methyl}amino)phenyl]carbonyl}(methyl)amino]-propanoic acid] |
| 86 | Cc1noc(C)c1-c1ccc2oc(C(Nc3ccc(C(=O)N(C)CCC(=O)O)cc3)C3CCCCC3)c(C)c2c1 (stereo not shown) [Example A178, 3-[{[4-({cyclohexyl[5-(3,5-dimethylisoxazol-4-yl)-3-methyl-1-benzofuran-2-yl]methyl}amino)phenyl]carbonyl}(methyl)amino]propanoic acid] |
